Assays:
[1] = biological target: IL-2-Inducible T-Cell Kinase (ITK) (Homo sapiens (Human), UniProt Q08881); assay: ITK enzyme assay; format: biochemical; conditions: geometric mean of count n; ITK FL enzyme, BTK peptide substrate
[2] = test system: IL-2 in supernatants from activated CD4+ human T-cells; assay: IL-2 inhibition in supernatants from activated CD4+ human T-cells (cisbio HTRF); format: cell-based; conditions: T-cell; geometric mean of count n; activated CD4+ human T-cells, 20 to 24 hrs; read-out: IL-2 IC50
[3] = biological target: Tropomyosin Receptor Kinase A (TRKA, NTRK1 enzyme) (Homo sapiens (Human), UniProt P04629); assay: TRKA (NTRK1) ThermoFisher Z'-LYTE assay; format: biochemical; conditions: test compound 1 uM, ATP 1 mM; arithmetic mean of count n; read-out: TRKA % inhibition
Chain of Tropomyosin Receptor Kinase A (TRKA, NTRK1 enzyme) (P04629 33-796): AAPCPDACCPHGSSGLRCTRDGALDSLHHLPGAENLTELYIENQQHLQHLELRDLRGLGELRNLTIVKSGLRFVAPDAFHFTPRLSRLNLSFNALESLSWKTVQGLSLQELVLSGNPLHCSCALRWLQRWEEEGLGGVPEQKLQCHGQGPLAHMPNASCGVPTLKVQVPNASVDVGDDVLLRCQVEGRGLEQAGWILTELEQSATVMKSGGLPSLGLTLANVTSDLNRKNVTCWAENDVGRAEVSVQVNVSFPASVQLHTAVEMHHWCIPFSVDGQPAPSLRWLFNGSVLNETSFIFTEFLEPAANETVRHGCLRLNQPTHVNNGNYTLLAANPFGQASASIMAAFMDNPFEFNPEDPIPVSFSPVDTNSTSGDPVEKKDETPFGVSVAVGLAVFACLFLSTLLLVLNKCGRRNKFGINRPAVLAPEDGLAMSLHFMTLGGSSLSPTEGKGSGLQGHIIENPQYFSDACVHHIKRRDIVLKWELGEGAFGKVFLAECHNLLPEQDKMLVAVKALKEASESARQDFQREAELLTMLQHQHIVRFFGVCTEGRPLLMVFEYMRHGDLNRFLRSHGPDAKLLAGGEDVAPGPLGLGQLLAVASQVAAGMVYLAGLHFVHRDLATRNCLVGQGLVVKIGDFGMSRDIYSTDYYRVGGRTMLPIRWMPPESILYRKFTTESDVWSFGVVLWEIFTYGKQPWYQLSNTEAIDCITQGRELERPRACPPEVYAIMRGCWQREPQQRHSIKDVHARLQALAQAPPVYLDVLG
Description: Tropomyosin Receptor Kinase a (TRKA) Activity, % Inhibition
TRKA, also known as neurotrophic tyrosine kinase receptor type 1 (NTKR1) activity was determined by measuring the effect of a test compound on the activity against the NTRK1 enzyme using the ThermoFisher Z′-LYTE Assay fluorescence-based coupled enzyme format (www.thermofisher.com/selectscreen). Test compounds were screened at a fixed concentration of 1 uM and the % inhibition was determined compared to controls at a fixed ATP concentration of 1 mM. The resulting effect value for the tested compound was compared to the assay controls to determine the % inhibition (%). % Inhibition (%) values for compounds of the invention are presented in the Table that follows.

Chain of IL-2-Inducible T-Cell Kinase (ITK) (Q08881 whole entry): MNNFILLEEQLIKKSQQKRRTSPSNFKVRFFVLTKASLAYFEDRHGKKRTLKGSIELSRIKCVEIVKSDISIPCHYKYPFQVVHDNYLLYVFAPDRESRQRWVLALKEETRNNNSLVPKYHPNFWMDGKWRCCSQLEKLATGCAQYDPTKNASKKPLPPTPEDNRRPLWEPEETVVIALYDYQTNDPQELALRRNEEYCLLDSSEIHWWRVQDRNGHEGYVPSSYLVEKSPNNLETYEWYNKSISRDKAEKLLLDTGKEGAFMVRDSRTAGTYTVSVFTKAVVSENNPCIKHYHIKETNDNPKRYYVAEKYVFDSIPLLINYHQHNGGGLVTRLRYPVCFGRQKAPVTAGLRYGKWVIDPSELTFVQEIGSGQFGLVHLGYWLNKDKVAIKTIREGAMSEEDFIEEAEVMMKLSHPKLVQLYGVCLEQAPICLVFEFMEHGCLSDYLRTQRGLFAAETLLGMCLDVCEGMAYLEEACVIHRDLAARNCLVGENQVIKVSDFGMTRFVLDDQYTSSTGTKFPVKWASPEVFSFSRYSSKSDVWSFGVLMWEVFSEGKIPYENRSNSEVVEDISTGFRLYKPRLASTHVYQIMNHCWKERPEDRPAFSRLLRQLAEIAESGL

Row | SMILES | IC50 [1] | IC50 [2] | inhibition at 1 µM [3]
1 | Cc1cc2[nH]c(-c3n[nH]c4c3C[C@@H]3C[C@]3(C)C4)nc2cc1N(C)C(=O)CN1CCCC1=O [Example 31, N-Methyl-N-(6-methyl-2-((4aS,5aR)-5a-methyl-1,4,4a,5,5a,6-hexahydrocyclopropa[f]indazol-3-yl)-1H-benzo[d]imidazol-5-yl)-2-(2-oxopyrrolidin-1-yl)acetamide] | 3 nM | 69 nM | 98%
2 | CC(=O)N(CC(=O)N(C)c1cc2nc(-c3n[nH]c4c3C[C@@H]3C[C@]3(C)C4)[nH]c2cc1C)C(C)C [Example 35, 2-(N-Isopropylacetamido)-N-methyl-N-(6-methyl-2-((4aS,5aR)-5a-methyl-1,4,4a,5,5a,6-hexahydrocyclopropa[f]indazol-3-yl)-1H-benzo[d]imidazol-5-yl)acetamide] | 5 nM | 62 nM | 97%
3 | CCOCC(=O)N(C)c1cc2nc(-c3n[nH]c4c3C[C@@H]3C[C@]3(C)C4)[nH]c2cc1C [Example 38, 2-Ethoxy-N-methyl-N-(6-methyl-2-((4aS,5aR)-5a-methyl-1,4,4a,5,5a,6-hexahydrocyclopropa[f]indazol-3-yl)-1H-benzo[d]imidazol-5-yl)acetamide] | 7 nM | 74 nM | 97%

Reference: patent US20240132477A1, “Benzimidazole Derivatives and Their Use As Inhibitors of ITK For The Treatment of Skin Disease” (PFIZER INC., priority 2020, published 2024)
